Reference: ChEMBL document CHEMBL1150663, “Pachastrissamine, a cytotoxic anhydrophytosphingosine from a marine sponge, Pachastrissa sp” (J Nat Prod, 2002)

Tests used:
Assay type in all cases: functional, cell-based
P388 = experiment: Cytotoxicity against mouse P388 cells after 3 days; details: P388, 72 h
A549 = experiment: Cytotoxicity against human A549 cells after 3 days; details: A549, 72 h
HT-29 = experiment: Cytotoxicity against human HT-29 cells after 3 days; details: HT-29, 72 h
SK-MEL-28 = experiment: Cytotoxicity against human SK-MEL-28 cells after 3 days; details: SK-MEL-28, 72 h

Measured: IC50

CCCCCCCCCCCCCC[C@@H]1OC[C@H](N)[C@@H]1O [PACHASTRISSAMINE]
0.01 µg/mL: P388 | A549 | HT-29 | SK-MEL-28
